# Assays:
# [1] = cited from earlier work
# [2] = Biotin-4-fluorescein (B-4-F) off-rate assay; format: binding
# Description: The off rate of streptavidin or the streptavidin mutants for biotin can be easily measured using the Biotin-4-fluorescein (B-4-F) off-rate assay described in the Examples. In this assay streptavidin (or a mutant thereof) is incubated with 12 nM B-4-F for 30 minutes at 37° C., where the binding of B-4-F to streptavidin quenches fluorescence. Excess biotin (100 μM) is added and fluorescence is then measured every 10 minutes for 10-18 hours. The rate of recovery of fluorescence indicates B-4-F off-rate from the streptavidin. Thus, the quicker that the fluorescence is seen in the sample the higher is the off rate, as fluorescence only starts to increase once B-4-F has dissociated from streptavidin.
# The amount of B-4-F recovered during an incubation with wildtype streptavidin is at least 9%, for example 10, 11 or 12%. The amount of B-4-F recovered after a 10 hour incubation with a mutant streptavidin of the present invention may be less than 9%, for example less than 8, 7, 6, 5, 4, 3, 2 or 1%. Particularly, the amount of B-4-F recovered may be 2-3%.
# The off-rate of biotin-4-fluorescein from avidin, streptavidin or traptavidin was measured using a PHERAstar plate-reader with 480 nm excitation and 520 nm emission (BMG LABTECH). In this assay the binding of biotin-4-fluorescein to an excess of binding protein results in quenching of fluorescein emission (Kada et al., 1999, Biochim. Biophys. Acta, 1427, 33-43). As the biotin-4-fluorescein dissociates, the fluorescence recovers. The assay was performed in the presence of excess biotin so that sites left open by biotin-4-fluorescein dissociation are immediately re-filled by biotin. 1 μM protein in 10 μL PBS was added to 12 nM biotin-4-fluorescein (Invitrogen), 0.12 mg/mL BSA in 170 μL PBS and incubated for 1 hr at 37° C. 20 μL PBS or 20 μL 1 mM biotin in PBS was then added and fluorescence measurements immediately started at 37° C. Percentage dissociation was calculated as (signal with biotin−signal without biotin)/(signal without quenching−signal without biotin)×100.
# Since biotin-4-fluorescein fluorescence is decreased at low pH, 100 nM streptavidin, S52G R53N streptavidin, S52G R53S streptavidin, or traptavidin was incubated with 12 nM biotin-4-fluorescein in 100 mM NaCl, 30 mM sodium citrate pH 5.0 for 3 hr at 25° C., before incubating at 37° C. and adding 100 μM biotin and incubating for various times. Samples were then placed on ice to block further dissociation, adjusted to pH 7.2 with 1M HEPES pH 8.3, and fluorescence intensity was immediately measured as above. p-values were calculated using two-tailed Student t-tests from the data at the final timepoint.
# [3] = Thermostability of biotin-conjugate binding (agarose gel); conditions: for dissociation of biotinylated DNA at 70° C.: 3 min
# Excerpt: For example, thermostability for biotin or a biotin conjugate can be measured in terms of the temperature at which 50% of the biotin or biotin conjugate is bound by the streptavidin, i.e. the temperature at which there is 50% dissociation. […] Thermostability for biotin or a biotin conjugate can be easily determined by heating streptavidin or a mutant thereof with biotin or a biotin conjugate to a particular temperature and then placing on ice. The amounts of free versus bound biotin conjugate present can be determined using an agarose gel and quantifying the band intensities.
# To determine the thermostability of bioin-conjugate binding, 5.0 μM streptavidin or traptavidin in PBS was incubated with 21 nM monobiotinylated DNA in 4 μL for 30 minutes at 25° C. The samples were made up to a total volume of 10 μL with a final concentration of 100 μM biotin, 20 mM Tris acetate, 1 mM DDT, 2 mM magnesium acetate and 20 mM potassium glutamate pH 7.5 and were incubated for 5 minutes at 25° C. Samples were then heated at the indicated temperature for 3 minutes using a Thermal Cycler and cooled to 10° C. An agarose gel of 1.5% was run at 6.0V/cm in TAE at 25° C. for 45 minutes and DNA stained with ethidium bromide was visualized using a ChemiDoc XRS imager and QuantityOne 4.6 software. The percentages were calculated as 100× the intensity of the band for free DNA divided by the summed intensities of the bands for free and bound DNA. The 439 bp biotinylated DNA was prepared by PCR using Taq polymerase employing the primers Fts1 and the internally biotinylated primer bioFts2 (Eurofins) from the plasmid pJEG41-N1.
# [4] = free biotin; cited from earlier work
# [5] = depending on the conjugate; cited from earlier work
# [6] = system: biotinylated DNA with FtsK50C; test: FtsK displacement assay; design: species or system E. coli; conditions: in the presence of ATP, 2 min, 25° C.
# Description: The FtsK displacement assay was performed at 25° C. in 25 mM Tris pH 7.5, 10 mM MgCl2. 5.9 nM DNA fragment was incubated with 0.5 μM streptavidin or traptavidin for 15 min, followed by 100 μM biotin to block free biotin binding sites. 1 μM FtsK50C was added and allowed to bind to the DNA for 5 min. 2.5 mM ATP was added to start the reaction, which was stopped after 2 min with 0.1% SDS and 20 mM EDTA. Samples were incubated for 20 mM to allow FtsK50C denaturation, mixed with 10× gel loading buffer (250 mM Tris pH 7.5, 20 mM EDTA, 50% glycerol, 2.5% bromophenol blue) and loaded on a 1.5% agarose gel in 1×TBE (89 mM Tris, 89 mM boric acid, 2 mM EDTA, pH 8.3) at 10 V/cm for 2 hr at 25° C. Gels were stained with SYBR Green (Invitrogen) for 2 hr, washed in ddH2O for 30 mM, imaged using a Fuji FLA3000 scanner, and quantified using Image Gauge software (Fuji). p-values were calculated using a two-tailed Student t-test.
# [7] = Thermostability of the tetramer structure (SDS-PAGE); format: physicochemical; conditions: absence of biotin, heated 3 min
# Excerpt: Streptavidin naturally occurs in tetrameric form i.e. made up of four streptavidin subunits. Streptavidin tetramers will however dissociate into monomeric form at high temperatures. […] For example, thermostability can be measured in terms of the temperature at which 50% of streptavidin is in the tetrameric form and 50% is in the monomeric form i.e. the temperature at which there is 50% dissociation.
# Thermostability can be easily determined by heating streptavidin or a mutant thereof to a particular temperature and then placing on ice. The amounts of subunits/tetramers present can be determined using SDS-PAGE and quantifying band intensities.
# 3 μM streptavidin or traptavidin in PBS was heated at the indicated temperature for 3 min in a Bio-Rad DNA Engine® Peltier Thermal Cycler and then immediately placed on ice (Bayer et al., 1996, Electrophoresis, 17, 1319-1324). Samples were mixed with 6×SDS-PAGE loading buffer and loaded onto a 18% polyacrylamide gel. The 100% monomer positive control was mixed with SDS loading buffer prior to heating at 95° C. for 3 min. Band intensities were quantified using a ChemiDoc XRS imager and QuantityOne 4.6 software (Bio-Rad).
# [8] = system: AP-IGF1R/BirA-ER expressing COST cells; test: Cellular imaging with Alexa Fluor 555 conjugates; format: cell-based
# Description: Streptavidin and […] labeled with Alexa Fluor 555 by adding 1/10 volume of 1 M NaHCO3 pH 8.3 and then a 10-fold molar excess of Alexa Fluor 555 succinimidyl ester (Invitrogen) (stock dissolved at 1 mg/mL in dry dimethylformamide) and incubating for 4 hr at room temperature. Free dye was separated using 1 mL packed volume Sephadex G-25 (Sigma) in a poly-prep column. Fractions containing labelled protein were pooled and dye was further removed by three rounds of dialysis in PBS. COST cells were grown in DMEM with 10% Fetal Calf Serum, 50 U/mL penicillin and 50 μg/mL streptomycin. Cells were transfected using Lipofectamine 2000 (Invitrogen) following manufacturer's instructions with 0.25 μg AP-IGF1R, 0.2 μg BirA-ER and 0.05 μg H2B-ECFP per well of a 48 well plate. Cells were incubated with 10 μM biotin overnight for optimum biotinylation by BirA-ER. On the next day, cells were washed 3× in PBS with 5 mM MgCl2 (PBS/Mg) and kept thereafter at 4° C. Cells were incubated for 15 min in PBS/Mg with 1% dialyzed BSA and 0.4 μM Alexa Fluor 555 conjugated […]. Cells were washed with PBS/Mg 3× before imaging live. Cells were imaged using a wide-field DeltaVision Core fluorescent microscope (AppliedPrecision) with a 40× oil-immersion lens. ECFP (436DF20 excitation, 480DF40 emission, Chroma 86002v1 dichroic), Alexa Fluor 555 (540D420 excitation, 600DF50 emission, Chroma 84100bs polychroic), and bright-field images were collected and analyzed using softWoRx 3.6.2 software. Typical exposure times were 0.1-1.0 s and fluorescence images were background-corrected. Different samples in the same experiment were prepared, imaged and analyzed under identical conditions.
# [9] = On-rate assay (biotin-4-fluorescein quenching); format: binding
# Description: The on rate can be measured again using an adapted B-4-F assay as described above. […] The on rate can therefore be established by the decrease in the amount of fluorescence which occurs over the incubation time. The faster the rate of decrease in fluorescence, the higher the on rate.
# The on-rate of biotin-4-fluorescein from streptavidin or traptavidin was measured in PBS on a PHERAstar plate-reader (BMG LABTECH). In this assay the binding of biotin-4-fluorescein to streptavidin/traptavidin results in quenching of the fluorescein emission (Kada et al., 1999). 20 μL 10 nM streptavidin or traptavidin was added to 180 μL 56 μM biotin-4-fluorescein and the fluorescein emission at measured every 6 s at 25° C. The concentration of free biotin-4-fluorescein was calculated as (signal with biotin−signal without biotin)/(signal without quenching−signal without biotin)×50 μM starting biotin-4-fluorescein. Linear regression using GraphPad Prism was applied to the plot of 1n free biotin-4-fluorescein against time, with the gradient equal to kon×[streptavidin or traptavidin].
# [10] = format: binding
# Description: AFM cantilevers (Veeco MLCT-AUHW) with a nominal spring constant of 0.01 N/m were used in all measurements and calibrated by the thermal fluctuation method (Hutter and Bechhoefer, 1993, Review of Scientific Instruments, 64, 1868-1873). Cantilevers were briefly washed in acetone and then UV irradiated for 15 minutes. Cantilevers were then briefly dipped in 0.1M NaHCO3 pH 9.0, air-dried, and coated in 0.5 mg/mL biotinamidocaproyl-Bovine Serum Albumin (biotin-BSA) (Sigma) overnight at 4° C. in a humidified chamber. Cantilevers were washed three times in PBS and then coated with 0.01-0.3 mg/mL streptavidin or […] for 15 mins at 25° C. […] dishes were coated with 0.1M NaHCO3 pH 9 and then 0.5 mg/mL non-recombinant streptavidin (from Streptomyces avidinii, Pierce) in 0.1M NaHCO3 pH 9 overnight in a humidified chamber at 4° C. Biotinylated agarose beads (Sigma) were aspirated onto the dish. Measurements were conducted at 25° C. with a custom built AFM (Rico and Moy, 2007, J. Mol. Recogniti., 20, 495-501). […] Single molecule rupture forces were determined by calculating the force in the retraction trace at the initial point of rupture, using Igor Pro 6.04 (Wavemetrics Inc.). […] The loading rate was determined as the slope of the force vs time plot before the rupturing of the single molecule bond and significance was evaluated with the Mann-Whitney test.
# [11] = 37° C., pH 7.4, excess free biotin
compound,measurement,setting,value
"O=C(O)CCCC[C@@H]1SC[C@@H]2NC(=O)N[C@@H]21 [biotin, cis-hexahydro-2-oxo H-thieno[3,4] imidazole-4-pentanoic acid]",pKa,[1],about 4
"avidin: Avidin (Sigma), biotin binding protein used as comparator [reference compound]",biotin conjugate off-rate (biotin-4-fluorescein dissociation),[2]; [11],dissociated very much faster than streptavidin
streptavidin: wildtype streptavidin protein comprising four wildtype subunits; core streptavidin with C-terminal His6 used in the tests [reference compound],temperature at which there is 50% dissociation of biotin or biotin conjugate,[3],50-60 °C
same,dissociation of biotinylated DNA at 70° C.,[3],complete dissociation
same,half life of free biotin,[4],approximately 6.6 hr
same,off rate of biotin,[4],2.9e-05 s⁻¹
same,biotin conjugate off-rate (biotin-4-fluorescein dissociation),[2]; [11],dissociated steadily
same,amount of B-4-F recovered,"[2]; 10 hour incubation, 37° C., excess biotin",at least 9%
same,half life for conjugated biotin,[5],6 to 100 h
same,dissociated from the DNA by FtsK50C translocation,[6],33%
same,temperature at which there is 50% dissociation of tetramer into monomer,[7],~75 °C
same,temperature at which there is 50% dissociation of tetramer into monomer,[7]; listed as wildtype streptavidin,70-75 °C
"traptavidin: S52G R53D mutant of core streptavidin with His6 tag, tetramer; subunit SEQ ID NO. 5",binding to untransfected neighboring cells expressing only AP-IGF1R,[8]; Alexa Fluor 555 conjugate,no detectable binding
same,signal on AP-IGF1R/BirA-ER expressing cells,[8]; Alexa Fluor 555 conjugate,strong signal
same,specificity for cellular imaging,[8]; Alexa Fluor 555 conjugate,high specificity
same,staining compared with streptavidin,[8]; each conjugated to Alexa Fluor 555,comparable
same,binding to equivalently treated cells when pre-blocked with free biotin,[8]; pre-blocked with free biotin,minimal binding
same,dissociation of biotinylated DNA at 70° C.,[3],most ligand was still bound
same,biotin conjugate off-rate (biotin-4-fluorescein dissociation),[2]; [11],dramatically reduced biotin conjugate off-rate
same,change at the initial time-point (dissociation),[2]; [11],~2%
same,dissociation over the subsequent 12 hr,[2]; [11],very little dissociation
same,off-rate at pH 5 of biotin-4-fluorescein,"[2]; pH 5, 37° C.",significantly slower than streptavidin
same,on-rate reduction relative to streptavidin,[9],approximately 2 fold
same,mechanical stability to a biotinylated ligand,[10],significantly greater mechanical stability than streptavidin
same,dissociated from the DNA by FtsK50C translocation,[6],11%
same,temperature at which there is 50% dissociation of tetramer into monomer,[7],~85 °C
